One data set deals with E. faecium strain ML1082. Put plainly: Inhibition of dopamine production of strain ML1082 by Carbidopa in sSIM. It counts as cell-based, Enterococcus faecium. The procedure: To further verify the strains were producing dopamine from L-DOPA, Carbidopa, an inhibitor of dopamine production through L-DOPA decarboxylation, was added to sSIM. […] A functional approximation of the ICso for dopamine was calculated to be 1.53E^−3. The IC50 was similar to the L-DOPA concentration of the broth, 1.26 mM, a finding that may indicate a competitive inhibitory mechanism for the bacterial enzyme.

For data set [1] the following is noted: cited from earlier work.

For `C[C@@](Cc1ccc(O)c(O)c1)(NN)C(=O)O` [Carbidopa], in the data set with E. faecium strain ML1082, the “inhibition of dopamine production (in words)” value is listed as “dose-dependent inhibition”.

Regarding `NCCc1ccc(O)c(O)c1` [dopamine], in data set [1] (pH of 5.6), the half-life of auto-oxidation was 324 h and the “reaction rate for the auto-oxidation (k)” value was 0.000000591 s⁻¹. Besides, in data set [1] (pH of 7.4), the half-life of oxidation is 4.95 min and the oxidation rate was 0.000586 s⁻¹.

The values above are taken from patent publication US20210332396A1, “GENETIC ELEMENTS IN ENTEROCOCCUS SPP. TO PRODUCE DOPAMINE” (Iowa State University Research Foundation, Inc., priority 2018, published 2021).
